In ChEMBL document CHEMBL5728780, “Cyclic substituted imidazo[4,5-c]quinoline derivatives” (2021):

Target: Leucine-rich repeat serine/threonine-protein kinase 2 (Homo sapiens, UniProt Q5S007)
Assay: LRRK2 Assay: LRRK2 kinase activity was measured using Lantha Screen technology from Invitrogen. GST-tagged truncated LRRK2 from Invitrogen (Cat #PV4874) was incubated with a fluorescein-labeled peptide substrate based upon ezrin/radixin/moesin (ERM), also known as LRRKtide (Invitrogen cat #PR8976A), in the presence of a dose response of compound. Upon completion, the assay was stopped and detected with a terbium labeled anti-phospho-ERM antibody (Invitrogen, cat #PR8975A). The assay was carried out under the following protocol: The compound dose response was prepared by diluting compound to a top concentration of 0.3 mM in 100% DMSO and serial diluted by half-log in DMSO to give an 11 point curve, 100× final assay concentration. Using Echo acoustic dispensing, 60 nL of compound was transferred to a low volume Corning 384-well assay plate. 3 μL of a working solution of substrate (200 nM LRRKtide, 2 mM ATP) prepared in assay buffer (50 mM HEPES, pH 7.5, 3 mM MgCl2, with 2 mM DTT and 0.01% Brij35 added fresh) was added to the 60 nL compound assay plate. The kinase reaction was started with 3 μL of a working solution of LRRK2 enzyme at a concentration of 4 μg/mL. The final reaction concentrations were 100 nM LRRKtide, 1 mM ATP, 2 μg/mL LRRK2 enzyme and a compound dose response with a top dose of 3 μM. […]

Chain of Leucine-rich repeat serine/threonine-protein kinase 2 (Q5S007 whole entry, looked up, the tested form may be a part): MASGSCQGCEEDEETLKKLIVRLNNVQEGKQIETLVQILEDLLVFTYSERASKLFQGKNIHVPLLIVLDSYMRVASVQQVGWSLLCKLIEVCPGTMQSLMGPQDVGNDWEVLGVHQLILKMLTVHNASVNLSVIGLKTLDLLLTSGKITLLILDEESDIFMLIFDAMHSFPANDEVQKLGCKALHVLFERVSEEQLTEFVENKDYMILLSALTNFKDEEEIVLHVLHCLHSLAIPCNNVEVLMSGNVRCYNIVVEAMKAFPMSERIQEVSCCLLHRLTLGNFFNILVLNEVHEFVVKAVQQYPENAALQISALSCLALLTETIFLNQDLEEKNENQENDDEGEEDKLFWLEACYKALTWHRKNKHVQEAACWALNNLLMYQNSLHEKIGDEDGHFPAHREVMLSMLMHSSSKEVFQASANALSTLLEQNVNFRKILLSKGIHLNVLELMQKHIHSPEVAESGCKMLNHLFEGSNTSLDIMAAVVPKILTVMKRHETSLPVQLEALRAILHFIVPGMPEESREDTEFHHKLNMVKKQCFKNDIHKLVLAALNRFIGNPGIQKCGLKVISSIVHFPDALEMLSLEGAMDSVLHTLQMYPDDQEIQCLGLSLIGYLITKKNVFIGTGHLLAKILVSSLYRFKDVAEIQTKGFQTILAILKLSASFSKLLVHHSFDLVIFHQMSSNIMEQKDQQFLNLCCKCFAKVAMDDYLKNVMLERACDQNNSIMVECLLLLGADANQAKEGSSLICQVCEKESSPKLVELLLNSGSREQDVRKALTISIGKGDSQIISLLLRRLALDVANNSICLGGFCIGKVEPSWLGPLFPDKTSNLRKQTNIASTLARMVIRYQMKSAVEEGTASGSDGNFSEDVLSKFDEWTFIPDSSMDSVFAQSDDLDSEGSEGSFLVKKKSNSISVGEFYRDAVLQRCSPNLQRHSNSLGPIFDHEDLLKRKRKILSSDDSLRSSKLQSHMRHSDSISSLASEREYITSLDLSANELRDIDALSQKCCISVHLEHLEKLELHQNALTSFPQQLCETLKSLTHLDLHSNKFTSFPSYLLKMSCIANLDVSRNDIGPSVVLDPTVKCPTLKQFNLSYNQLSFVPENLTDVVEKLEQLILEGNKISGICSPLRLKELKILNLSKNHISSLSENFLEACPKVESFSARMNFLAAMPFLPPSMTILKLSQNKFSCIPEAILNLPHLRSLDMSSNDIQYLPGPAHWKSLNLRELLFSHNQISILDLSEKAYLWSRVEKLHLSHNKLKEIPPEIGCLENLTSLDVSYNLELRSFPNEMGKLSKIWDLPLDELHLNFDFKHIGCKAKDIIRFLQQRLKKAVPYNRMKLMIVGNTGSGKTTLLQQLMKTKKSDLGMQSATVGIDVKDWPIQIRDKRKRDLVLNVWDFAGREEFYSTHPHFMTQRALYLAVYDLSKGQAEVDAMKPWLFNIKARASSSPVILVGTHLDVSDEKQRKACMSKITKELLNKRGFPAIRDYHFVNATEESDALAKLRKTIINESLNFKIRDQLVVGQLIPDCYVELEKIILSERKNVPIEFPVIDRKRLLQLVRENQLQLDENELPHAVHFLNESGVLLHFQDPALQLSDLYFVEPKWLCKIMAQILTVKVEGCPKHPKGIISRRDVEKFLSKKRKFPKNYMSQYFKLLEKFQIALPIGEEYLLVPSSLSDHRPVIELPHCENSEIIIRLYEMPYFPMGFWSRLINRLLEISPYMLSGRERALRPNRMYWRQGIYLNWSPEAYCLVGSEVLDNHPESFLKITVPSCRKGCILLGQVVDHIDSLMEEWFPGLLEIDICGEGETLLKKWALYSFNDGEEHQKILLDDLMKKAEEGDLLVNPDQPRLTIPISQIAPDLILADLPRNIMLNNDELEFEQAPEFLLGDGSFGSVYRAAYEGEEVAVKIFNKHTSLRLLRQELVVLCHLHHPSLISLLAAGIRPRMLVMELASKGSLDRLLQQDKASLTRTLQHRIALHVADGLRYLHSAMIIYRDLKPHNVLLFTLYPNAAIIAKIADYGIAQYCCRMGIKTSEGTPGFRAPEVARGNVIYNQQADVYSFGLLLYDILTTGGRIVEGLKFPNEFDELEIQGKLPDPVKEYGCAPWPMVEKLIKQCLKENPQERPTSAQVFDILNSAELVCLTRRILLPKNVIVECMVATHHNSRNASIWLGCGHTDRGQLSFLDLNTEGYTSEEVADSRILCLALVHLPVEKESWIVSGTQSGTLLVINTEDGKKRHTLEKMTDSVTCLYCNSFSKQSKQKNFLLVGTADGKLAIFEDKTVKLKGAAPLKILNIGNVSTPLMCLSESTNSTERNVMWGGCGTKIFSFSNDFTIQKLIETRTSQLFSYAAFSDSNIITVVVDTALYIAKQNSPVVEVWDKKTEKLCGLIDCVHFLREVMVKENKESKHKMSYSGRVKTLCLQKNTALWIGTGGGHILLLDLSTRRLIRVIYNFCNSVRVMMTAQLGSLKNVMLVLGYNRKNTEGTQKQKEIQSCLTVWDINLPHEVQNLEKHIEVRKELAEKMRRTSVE

IC50: > 2.84 µM
Structure (SMILES): CN1CC[C@@H](n2c(C3CCC(F)C3)nc3cnc4ccc(F)cc4c32)C1 (stereo partly specified)
